Molecular target: T1, Gc4EO (Gulosibacter chungangensis, UniProt A0A7J5BGR1)
T1 sequence (A0A7J5BGR1 1-529): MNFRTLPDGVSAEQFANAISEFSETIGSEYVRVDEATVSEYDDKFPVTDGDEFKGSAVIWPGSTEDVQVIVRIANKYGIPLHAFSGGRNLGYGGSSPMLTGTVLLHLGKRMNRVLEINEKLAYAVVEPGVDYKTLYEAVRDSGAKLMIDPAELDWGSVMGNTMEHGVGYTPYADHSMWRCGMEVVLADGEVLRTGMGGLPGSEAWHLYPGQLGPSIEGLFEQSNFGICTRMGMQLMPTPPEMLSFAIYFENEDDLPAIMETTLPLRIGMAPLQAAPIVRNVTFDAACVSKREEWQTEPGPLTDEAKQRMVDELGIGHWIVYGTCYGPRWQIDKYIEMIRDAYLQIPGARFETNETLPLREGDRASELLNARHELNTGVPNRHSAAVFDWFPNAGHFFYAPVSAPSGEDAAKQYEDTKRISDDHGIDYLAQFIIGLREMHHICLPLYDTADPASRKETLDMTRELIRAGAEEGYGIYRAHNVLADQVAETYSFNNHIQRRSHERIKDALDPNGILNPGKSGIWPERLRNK
Test: X-ray crystal structure, […] Å
Format: binding
Details: covalent; C8M of FAD to His395; pH 8.0 crystals

SMILES: Cc1cc2nc3c(=O)[nH]c(=O)nc-3n(C[C@H](O)[C@H](O)[C@H](O)COP(=O)(O)OP(=O)(O)OC[C@H]3O[C@@H](n4cnc5c(N)ncnc54)[C@H](O)[C@@H]3O)c2cc1C [FAD]
- X-ray crystal structure, 1.7 Å: showing the covalent bond between the C8 M of FAD and His395
